Source: US8518882B2, “Methods and compositions for ameliorating or inhibiting decline in memory or intelligence or improving same” (priority 1998, dated 2013)

What was measured:
[1] = test system: Aging rats; assay: Morris water maze in aging rats on UMP diet; assay type: in vivo; conditions: 2.5% diet for six weeks
Text: Aging rats (18 months, 500 g) were fed a control diet or a diet containing 2.5% UMP diets for six weeks. They were then shown a hidden platform in a six-foot diameter pool of water, placed somewhere in each of the four quadrants of the pool in turn, and were allowed 90 seconds in each trial to attempt to relocate the platform by swimming, and the swimming time “mean escape latency” recorded. The set of four trials was repeated on each of four consecutive days. The platform was in the same place each day. This test, known as the Morris water maze, is an indicator of spatial memory.

[2] = test system: acetylcholine release from neurons in the corpus striatum; assay: Basal acetylcholine release in corpus striatum of rats on dietary UMP; assay type: in vivo
[3] = test system: CDP-choline levels in the brain; assay: Brain CDP-choline levels after oral UMP in gerbils; assay type: in vivo; conditions: UMP 1 mmole/kg by gavage, for 30 min, r=0.98, p<0.02
Description: Data was pooled from three experiments, with group sizes ranging from 5 to 16 animals. Male gerbils (60-80 g) were given UMP (1 mmole/kg body weight) by gavage and sacrificed at the indicated times. After brain homogenization, protein precipitation, and lyophilization as described for Example 3, samples were analyzed by HPLC-UV.
Brain tissue or cells was dissolved in methanol/chloroform (1:2 vol/vol), centrifuged, and the aqueous phase was dried under vacuum, resuspended in 100-200 μL water and separated by HPLC on an ion-exchange column (Alltech Hypersil APS-2, 5 μM, 250×4.6 mm). CDP-choline was eluted with a linear gradient of NaH2PO4 buffers A (1.75 mM NaH2PO4, pH 2.9) and B (500 mM, pH 4.5), which allowed resolution of CDP-choline from closely co-eluting substances such as UMP over 40 min. The retention time for CDP-choline was 9.5 min. Individual nucleotide peaks were detected by UV absorption at […], and were identified by comparison with the positions of authentic standards, as well as by the addition of nucleotide standards to selected samples.

[4] = test system: EC and IC rats; assay: Visible platform water maze task in EC and IC rats; assay type: in vivo, Sprague Dawley rats; conditions: UMP-supplemented diet
Description: On each trial the animal was placed into the tank facing the wall at one of four designated start points (N, S, E, and W) and allowed to escape onto the visibly cued platform. A different starting point was used on each trial such that each starting point was used each day. In addition, the visible escape platform was placed in a different quadrant on each trial such that each of the four quadrants contained the escape platform once each day. […] After mounting the platform, rats remained on the platform for 20 sec. Following each trial, animals were removed from the maze and placed in a holding cage for a 30-sec ITI.

[5] = test system: gerbils; assay: Radial arm maze food pellet learning assay in gerbils; assay type: in vivo; conditions: gerbils, 0.1, 0.5 or 2.5% UMP chow for three weeks
Description: Male young adult gerbils fed control or UMP-containing chow (0, 0.1, 0.5 or 2.5%) ad lib for three weeks were tested in a radial arm maze, consisting of a central chamber with four branches primed with a small food pellet at the end of each. Before testing, animals were fasted overnight; each animal was then placed in the central chamber and allowed up to 180 seconds to find all of the pellets. A shorter time required to find the pellets is indicative of improved learning and spatial memory.

[6] = test system: gerbils; assay: Working memory and reference memory assay in gerbils; assay type: in vivo; conditions: 0.1% UMP diet for four weeks
Text: Groups of ten gerbils fed control or 0.1% UMP diet for four weeks and trained to successfully find all of the food pellets as described above were then given a modified test in which only two arms of the maze (but always the same two) contained food pellet rewards. In this test, a working memory error is one in which a gerbil revisits an arm from which it has already taken the pellet that day.

[7] = test system: EC and IC rats; assay: Hidden platform water maze task and probe test in EC and IC rats; assay type: in vivo, Sprague Dawley rats; conditions: 0.1% UMP diet
Description: Behavioral training was carried out between 10:00 AM-2:00 PM, in a blinded manner. […] A different starting point was used on each trial such that each starting point was used once each day. […] After mounting the platform, rats remained on the platform for 20 seconds. Following each trial, animals were removed from the maze and placed in a holding cage for a 30 second inter-trial interval (ITI). The latency to mount the escape platform was used as a measure of task acquisition.
For this, the platform was removed and the swim path and time spent searching in the quadrant of the pool that previously contained the platform were measured over 60 s. This provides a measurement for the retention of spatial memory and indicates whether a spatial strategy was used during hidden platform training.

[8] = test system: neurofilament-M (NF-M); assay: Western blot of NF-M in striatum of aged rats on UMP diet; assay type: in vivo
Description: (§1) Data were represented according to UMP treatment of six to sixteen measurements each group (means±S.E.M.). One-way ANOVA with Turkey's HSD post hoc tests were used to compare the difference among the treatments the Newman-Keuls multiple range test was used for the data in FIG. 13.
(§2) Striatal tissues were placed in Eppendorf tubes containing 200 μl lysis buffer (60 mM Tris-HCl, 4% SDS, 20% glycerol, 1 mM dithiothreitol, 1 mM AEBSF, 8 μM aprotinin, 500 μM bestatin, 15 μM E64, 200 μM leupeptin, 10 μM pepstatin A). The samples were sonicated, boiled (10 min), and centrifuged (14,000 g for 1 min at room temperature) The supernatant fluid was transferred to a clean tube, and total protein content was determined using the Bicinchoninic Acid assay (Sigma, St. Louis, Mo.).
(§3) Equal amounts of protein (40 μg protein/lane) were loaded for sodium dodecyl sulfate-polyacrylamide gel electrophoresis (4-15% SDS PAGE; Bio-Rad, Hercules, Calif.). Prior to gel electrophoresis, bromphenol blue solution (0.07%) was added to each sample. Proteins were separated, transferred onto polyvinylidene difluoride (PVDF) membranes (Immobilon-P, Millipore), and blocked with 5% bovine serum albumin (Tris-buffered saline/0.15% Tween 20) for 1 h. After 3 10 min rinses in Tris-buffered saline (TBST), blots were incubated in TBST with various antibodies against the proteins of interest, including NF-70, NF-M (1: 2000, 1: 5000, respectively; Calbiochem, La Jolla, Calif.) at 4° C. overnight on an orbital shaker. […] Films were digitized using a Supervista S-12 scanner with a transparency adapter (UMAX Technologies, Freemont, Calif.). Analysis was performed using the public domain NIH Image program (NIH V.1.61).

[9] = Body weight of aged rats on UMP diet; conditions: 2.5% UMP·2Na+ diet, 0-6 weeks
Description: Male middle aged Fischer 344 rats, 22-24 months old at the time of doing microdialysis, were obtained from National Institute on Aging (Harlan Sprague-Dawley, Indianapolis, Ind.). Rats were housed individually under standard husbandry conditions and exposed to 12 hr light/dark cycle with food and water provided ad libitum.
Rats were acclimated to the animal facility for more than 7 days before fed a control laboratory diet (Teklad Global 16% protein rodent diet, TD.00217, Harlan Telclad, Madison, Wis.), or this diet fortified with UMP·2Na^+ (2.5%, TD.03398, UMP·2Na^+; Numico Research, the Netherlands) for 6 weeks.
Rats were not fed with the research diet until at least 7 days later after their arrival. They were weighed at the time of beginning feeding (t=0), as well as 1, 2, 4, 6 weeks later. At time 0, rats were randomly assigned into two groups.

[10] = test system: neurofilament-70 (NF-70); assay: Western blot of NF-70 in striatum of aged rats on UMP diet; assay type: in vivo
Description: as §1, §2, §3

Compound: O=c1ccn([C@@H]2O[C@H](COP(=O)([O-])[O-])[C@@H](O)[C@H]2O)c(=O)[nH]1.[Na+].[Na+] [UMP, uridine-5′-monophosphate disodium]
- Time required to reach the platform (mean escape latency) [1]: statistically significant reduction in the time required to reach the location of the platform
- Basal release of acetylcholine in corpus striatum [2]: increase the basal release
- Brain CDP-choline levels [3]: rose significantly in a linear fashion
- Striatal-based (stimulus-response) memory, visible platform task [4]: little or no effect
- Time required to find the pellets [5]: reduced the time required for gerbils to find the pellet in a dose-dependent manner
- Reference memory errors [6]: reduced numbers
- Working memory errors [6]: reduced numbers
- Rate of acquisition of hidden platform task ([7]; EC rats, vs EC-CONT, P<0.09): acquired the task at a faster rate
- Rate of acquisition of hidden platform task ([7]; IC rats, vs IC-CONT, P<0.05): acquired the task at a significantly faster rate
- Time in correct quadrant, 60 s probe test ([7]; IC rats, vs IC-CONT, p<0.01): spent significantly more time in the correct quadrant
- NF-M level compared to control group ([8]; UMP diet 1 week): did not increase
- NF-M level, of control values ([8]; UMP diet 6 weeks, striatum, p<0.01): 221±34%
- NF-M level in striatum, of control values (second statement) ([8]; feeding time not given): 221±34%
- Body weight [9]: neither UMP-diet (vs. control) nor UMP time interaction affected body weight
- NF-70 level compared to control group ([10]; UMP diet 1 week): did not increase
- NF-70 level, of control values ([10]; UMP diet 6 weeks, striatum, p<0.05): 182±25%
- NF-70 level in striatum, of control values (second statement) ([10]; feeding time not given): 204±36%
